# Data: US10130604B2, “Composition and method for treating neurodegenerative disease” (priority 2012, dated 2018)
# Read-outs that look alike come from different tables or passages of the source.
# Experiments:
# [1] = gut; cited from earlier work
# [2] = tested on: Y39C-α-synuclein transgenic mice; assay: Rotarod test in Y39C-α-synuclein transgenic mice treated with glycerol phenylbutyrate; format: in vivo, mouse
# Experimental: Transgenic mice were genetically programmed from birth to develop a “Parkinson-Plus” condition by depositing an abnormal form of a protein called Y39C-α-synuclein in neurons of the brain under control of the Thy1 promoter (see Zhou et al., J. Biol. Chem., 2008, 283, 9863-70). […] After 6 weeks of daily treatment, animals were placed on a rotating rod (Rotarod) at different speeds for up to 5 minutes. Animals which could not keep up with the turning rod fell off. The time they were able to stay on the rod was noted. […] These differences were statistically significant at the higher speeds, 21 and 26 rpm. At the highest speed, 33 rpm, all animals fell off the rod after about 50 seconds.
# human DJ-1 promoter = assay: Human DJ-1 promoter-luciferase reporter assay in HEK293 cells; format: cell-based; conditions: 48 hr treatment
# Description: The human DJ-1 2 kb promoter area was amplified by PCR using genomic DNA from HEK293 cells. The human DJ-1 promoter was then cloned into the pGLuc-Basic vector, and that reporter vector was transfected into HEK293 cells.
# α-synuclein = conditions: C57BL/6 mice, drinking water, two weeks
# Experimental: (§1) Cells were lysed in a dissociation buffer containing 50 mM Tris-HCl, 10 mM NaCl, 0.1% Triton X-100 plus protease inhibitor cocktail (Roche). The mouse brain tissues were dissected and quickly frozen in dry ice. Tissues were thawed on ice and homogenized in dissociation buffer with protease inhibitors (Roche). Protein concentration was determined by the BCA method (Pierce). Fifty μg of protein was separated on 10% SDSPAGE gel and transferred to a nitrocellulose membrane. After blocking nonspecific binding, membranes were incubated with antibodies to DJ-1 (1:5000, Chemicon), α-synuclein (1:3000, Transduction Laboratories), TH (1;2000, PelFreez), and β-actin (1:4000, Sigma). Blots were incubated with HRP-conjugated secondary antibody (1:10,000; Jackson Immune Research), followed by chemiluminescent detection (Perkin Elmer life Sciences) (31,38).
# (§2) Adult C57BL/6 mice (4-6 months old) were treated with PB and SB in drinking water for 14 days. The PB and SB were dissolved in water at concentrations of 500, 1000, 1500, and 2000 mg/L. Mice typically drink 4-5 ml of water per day, and their drinking volumes were not affected by the addition of PB or SB. Control animals received water with sodium chloride added to the same molarity as the sodium in the drug-treated animals. […]
# DJ-1 [3] = conditions: C57BL/6 mice, drinking water, two weeks, vs control
# Experimental: as §1, §2
# DJ-1 [4] = conditions: HEK293 reporter cells, 48 hr treatment
# Experimental: Cells were lysed in a dissociation buffer containing 50 mM Tris-HCl, 10 mM NaCl, 0.1% Triton X-100 plus protease inhibitor cocktail (Roche). […] Protein concentration was determined by the BCA method (Pierce). Fifty μg of protein was separated on 10% SDSPAGE gel and transferred to a nitrocellulose membrane. After blocking nonspecific binding, membranes were incubated with antibodies to DJ-1 (1:5000, Chemicon), α-synuclein (1:3000, Transduction Laboratories), TH (1;2000, PelFreez), and β-actin (1:4000, Sigma). Blots were incubated with HRP-conjugated secondary antibody (1:10,000; Jackson Immune Research), followed by chemiluminescent detection (Perkin Elmer life Sciences) (31,38).
# The luciferase assay was based on the pGLuc-Basic vector (NEB). The human DJ-1 2 kb promoter area was amplified by PCR using genomic DNA from HEK293 cells. The human DJ-1 promoter was then cloned into the pGLuc-Basic vector, and that reporter vector was transfected into HEK293 cells. G418 (200 μg/ml) was applied to the cultures, and resistant clones were selected and assayed for luciferase activity. […] Culture medium samples (20 μl) were incubated with Gaussia luciferase assay substrate (NEB), and luminescence was measured in a 96-well plate reader (BioTek Synergy HT Multi-Mode microplate reader).
# DJ-1 [5] = conditions: N27 cells, two days treatment, Western blot
# Experimental: Dopaminergic cells derived from embryonic day 12 rat mesencephalon and immortalized with the SV40 large T antigen designated 1RB3AN27, (N27 cells) were used (37). […] Cells were lysed in a dissociation buffer containing 50 mM Tris-HCl, 10 mM NaCl, 0.1% Triton X-100 plus protease inhibitor cocktail (Roche). […] Protein concentration was determined by the BCA method (Pierce). Fifty μg of protein was separated on 10% SDSPAGE gel and transferred to a nitrocellulose membrane. […] Blots were incubated with HRP-conjugated secondary antibody (1:10,000; Jackson Immune Research), followed by chemiluminescent detection (Perkin Elmer life Sciences) (31,38).
# dopamine neurons = conditions: vs MPTP alone
# Experimental: Treatment with PB continued after MPTP injection. […] One week after MPTP lessoning, mouse brain tissues were dissected for Western blot and HPLC analysis. Mouse striatum was frozen in dry ice, sonicated in ice-cold 0.2 m perchloric acid and centrifuged at 15,000 g for 15 min at 4° C. An aliquot (5 μL) of the supernatant solution was analyzed by HPLC equipped with an electrochemical detector (CoulArray system ESA Model 5600; ESA, Boston, Mass., USA), a pump (ESA Model 580) set at 1.5 mL/min, and a reverse-phase C18 column (3 μm, 100 Å 4.6 mm, Waters, Milford, Mass., USA). The mobile phase was composed of 100 mm citric acid, 2% methanol, 1 mm EDTA and 5 mg/L sodium octyl sulfate (pH 3.0).
# N27 cells [6] = tested on: N27 cells
# [7] = cited from earlier work
# Vamp2 = conditions: A53T human α-synuclein overexpression plus phenylbutyrate
# [8] = tested on: Y39C α-synuclein transgenic mice; conditions: 1000 mg/L drinking water, 6 and 12 weeks
# Experimental: The [MUT] α-synuclein transgenic mice were divided into younger (6-8 months=Young Tg) and older (10-12 months=Old Tg) groups. Each group received PB (1000 mg/L, 5.4 mM) or vehicle (NaCl) in the drinking water for 3 months. Animals were tested for rotarod and water maze performance after 6-weeks and 12-weeks of treatment. Spatial learning was assessed using the Morris water maze. The maze included a circular tank (120 cm in diameter) filled to 10 cm below the edge of the tank with 27° C. water that was made opaque by the addition of non-toxic black ink. A circular escape platform (10 cm in diameter) was located 1 cm below the surface of the water in a constant location in the northwest quadrant of the tank. Mice were first acclimated to the maze during three trial habituation sessions. Each testing session consisted of three consecutive days with four trials per day. The platform was invisible in the pool, and mice were allowed to swim for 60 sec before being returned to the home cage. The latency from all training and testing sessions was collected.
# N27 cells [9] = conditions: shDJ-1 N27 cells; H2O2 75 or 100 μM, 6-OHDA 60 or 80 μM
# Nrf2 = conditions: N27 dopamine neurons
# N27 cells [10] = conditions: two days pretreatment, then A53T α-synuclein adenovirus two days
# [11] = tested on: Y39C α-synuclein transgenic mice; conditions: 1000 mg/L drinking water, 6 and 12 weeks; remark: listed apart in the source
# Experimental: The [MUT] α-synuclein transgenic mice were divided into younger (6-8 months=Young Tg) and older (10-12 months=Old Tg) groups. Each group received PB (1000 mg/L, 5.4 mM) or vehicle (NaCl) in the drinking water for 3 months. Animals were tested for rotarod and water maze performance after 6-weeks and 12-weeks of treatment. Mice were tested for their ability to run on a 3 cm diameter rotating rod (rotarod) at speeds ranging from 3 to 33 rpm. The protocol consisted of two phases: habituation (Day 1) and rotated training/testing (Days 2 to 5). During habituation on Day 1, the mice were trained to remain on the rotarod at 3 rpm. […] Each test day, the speed was increased, reaching 33 rpm by Day 5. The time the mice spent on the rotarod without falling was recorded for each trial.
# [12] = 1000 mg/L drinking water, Western blot
smiles,measurement,setting,value
"O=C(CCCc1ccccc1)OCC(COC(=O)CCCc1ccccc1)OC(=O)CCCc1ccccc1 [glycerol phenylbutyrate, Glycerol phenylbutyrate]",metabolism of the pro-drug,[1],metabolized in the gut to produce the active compound phenylbutyrate
same,time able to stay on the rotating rod,"[2]; 6 weeks daily treatment, vs glycerol, significant at 21 and 26 rpm",able to stay on the rod longer
same,time until animals fell off the rod at the highest speed,"[2]; 33 rpm, all animals",about 50 seconds
CCCC(=O)[O-].[Na+] [sodium butyrate],luciferase activity,human DJ-1 promoter,increased luciferase activity
same,α-synuclein concentrations in brain,α-synuclein,not changed
same,brain DJ-1 levels,DJ-1 [3],significantly increased DJ-1 levels
same,DJ-1 protein levels,DJ-1 [4],increased
same,DJ-1 protein levels,DJ-1 [5],300 % of control
O=C([O-])CCCc1ccccc1.[Na+] [sodium phenylbutyrate],striatal dopamine levels (HPLC),dopamine neurons; 1000 mg/L drinking water two weeks before MPTP,significantly increased striatal dopamine levels
same,DJ-1 levels in striatum,dopamine neurons; [12],significantly increased
same,tyrosine hydroxylase protein levels in striatum,dopamine neurons; [12],increased
same,numbers of TH positive dopamine neurons in the substantia nigra,dopamine neurons; 1000 mg/L drinking water,significantly higher numbers of TH positive dopamine neurons
same,"increase in Lamp2 gene expression, with A53T",Lamp2; A53T expression plus phenylbutyrate,400 fold
same,increase in Lamp2 expression,"Lamp2; N27 dopamine neurons, drug alone",about 30 fold
same,"increase in Lamp2 expression, pretreatment followed by H2O2","Lamp2; pretreatment 48 hr, then H2O2",200 fold
same,luciferase activity,human DJ-1 promoter,increased luciferase activity
same,cell viability in naïve N27 cells,"N27 cells [6]; H2O2 75 or 100 μM, 6-OHDA 60 or 80 μM",significantly improved cell viability
same,cell survival,"N27 cells [6]; cells exposed to H2O2 and A53T, not shown",substantially better
same,half-life in vivo,[7],50 min
same,"Vamp2 overexpression, A53T with addition of phenylbutyrate",Vamp2,200 fold
same,"water maze performance, Young Tg mice",[8],did not change water maze performance
same,"water maze function, Old Tg mice",[8]; vs vehicle,prevented the age-related decline in water maze function
same,neuroprotective effect against H2O2 and 6-OHDA-induced toxicity after DJ-1 knockdown,N27 cells [9],effectively abolished the neuroprotective effect
same,increase in Nrf2 mRNA,Nrf2,50 fold
same,cell viability after A53T mutant α-synuclein expression,N27 cells [10],increased cell viability
same,number of cells with α-synuclein aggregates,N27 cells [10],reduced the number of cells with α-synuclein aggregates
same,"motor function (rotarod), Young Tg mice",[11],did not change motor function
same,"motor function (rotarod), Old Tg mice",[11]; vs vehicle,significantly improved motor function
